Patent US20210139497A1, “THIENOCYCLIC COMPOUND AND SYNTHESIS METHOD THEREFOR AND APPLICATION THEREOF” (SHANGHAI YUYAO BIOTECH LTD., priority 2017, published 2021)

Tests used:
[1] = target: T1, human prostaglandin E2 receptor EP1 subtype (Homo sapiens, UniProt P34995); assay: Calcium flux of human prostaglandin E2 receptor EP1 subtype; assay type: cell-based; conditions: CHO-K1-Gα16 cells overexpressing human EP1, activated by prostaglandin E2; read-out: hEP1 Ca^2+ IC50
T1 construct: expressed in transfected cells; host or cells: CHO-K1-Gα16
T1 sequence (P34995 1-402): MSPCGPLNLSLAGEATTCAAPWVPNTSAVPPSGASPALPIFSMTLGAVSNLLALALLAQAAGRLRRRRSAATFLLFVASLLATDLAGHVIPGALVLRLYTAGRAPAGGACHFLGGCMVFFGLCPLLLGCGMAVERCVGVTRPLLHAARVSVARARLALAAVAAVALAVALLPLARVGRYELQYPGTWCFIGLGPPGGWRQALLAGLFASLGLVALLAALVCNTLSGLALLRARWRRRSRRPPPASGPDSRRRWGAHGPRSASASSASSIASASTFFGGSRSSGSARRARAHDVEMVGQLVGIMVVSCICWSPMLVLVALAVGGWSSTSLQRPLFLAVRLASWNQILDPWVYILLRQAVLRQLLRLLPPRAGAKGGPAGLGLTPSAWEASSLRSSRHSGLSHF
Protocol: (§1) CHO-K1-Gα16 cells at the logarithmic growth phase were transfected with human prostaglandin E2 Receptor subtypes EP1, EP2 or EP3 overexpressing vector by Lipofectamine 2000, then seeded in a 96-well plate (Falcon, CA) at a density of 20000 cells per 100 μL culture medium for overnight culture. On the second day, every single well were added with 100 μL calcium 5 detection reagents (Molecular Devices) and incubated in incubator at 37° C., 5% CO2 for 45 minutes. The compounds were diluted with HBSS detection buffer, then were added to 96-well plates. After 20 min incubation at room temperature in the dark, prostaglandin E2 at certain concentration was used to activate calcium flux of cells for detection (Flexstation 3, MD, CA).
(§2) Calculate the IC50 of the compounds of the invention in inhibiting the calcium flux of human EP1, EP2, and EP3 receptor (i.e. the concentration of drugs at which the intracellular Ca^2+ flux being inhibited by half after overexpressing human EP1, EP2, and EP3 receptors in CHO-K1-Gα16 cells). The IC50 of the drugs were calculated using GraphPad Prism 5.

[2] = Cytotoxicity evaluation (CCK8), 293; conditions: human
[3] = target: T2, human prostaglandin E2 receptor EP2 subtype (Homo sapiens, UniProt P43116); assay: Calcium flux of human prostaglandin E2 receptor EP2 subtype; assay type: cell-based; conditions: CHO-K1-Gα16 cells overexpressing human EP2, activated by prostaglandin E2; read-out: hEP2 Ca^2+ IC50
T2 construct: expressed in transfected cells; host or cells: CHO-K1-Gα16
Protocol: as §1, §2

[4] = Cytotoxicity evaluation (CCK8), MOSJ; conditions: mouse, MOSJ osteosarcoma cells
Protocol: (§5) Cells with a density of 2000-8000 cells per 100 μL medium were seeded in 96-well plates (Falcon, CA) and incubated for 24 hours, then treated with drugs having different concentration gradient (at least 4 replicates per concentration) and incubated at 37° C. in 5% CO2 incubator for 72 hours. Then cell viability was detected by CCK8 method. That is to say, add 10 μL CCK8 to each well and incubate for 0.33-2 h, and the OD values are read by microplate reader at 450 nm. The inhibition rate on cell survival of compounds with each concentration were calculated.
(§6) Inhibition rate on cell survival=(OD value of groups with each concentration/OD
(§7) value of control group)×100%±standard deviation.
(§8) The IC50 of drugs were calculated using GraphPad Prism 5.0.

[5] = Cytotoxicity evaluation (CCK8), PANC02; conditions: mouse, PANC02 pancreatic cancer cells
Protocol: as §5, §6, §7, §8

[6] = target: T3, human prostaglandin E2 receptor EP3 subtype (Homo sapiens, UniProt P43115); assay: Calcium flux of human prostaglandin E2 receptor EP3 subtype; assay type: cell-based; conditions: CHO-K1-Gα16 cells overexpressing human EP3, activated by prostaglandin E2; read-out: hEP3 Ca^2+ IC50
T3 construct: expressed in transfected cells; host or cells: CHO-K1-Gα16
T3 sequence (P43115 1-390): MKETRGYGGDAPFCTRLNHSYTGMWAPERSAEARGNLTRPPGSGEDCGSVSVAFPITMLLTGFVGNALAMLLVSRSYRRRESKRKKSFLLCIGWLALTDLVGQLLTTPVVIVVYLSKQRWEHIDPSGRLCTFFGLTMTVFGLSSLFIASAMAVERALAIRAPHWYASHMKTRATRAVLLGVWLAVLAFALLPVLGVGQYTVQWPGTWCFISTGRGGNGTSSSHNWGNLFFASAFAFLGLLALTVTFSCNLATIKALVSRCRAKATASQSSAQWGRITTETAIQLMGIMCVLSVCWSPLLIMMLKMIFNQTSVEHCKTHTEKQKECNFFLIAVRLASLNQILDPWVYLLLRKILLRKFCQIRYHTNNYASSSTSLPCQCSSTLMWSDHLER
Protocol: as §1, §2

[7] = target: T4, human PGE2 receptor EP4 subtype (hEP4) (Homo sapiens, UniProt P35408); assay: Calcium flux of human prostaglandin E2 receptor EP4 subtype; assay type: cell-based; conditions: CHO-K1-Gα16 cells overexpressing hEP4, calcium flux activated by prostaglandin E2; read-out: hEP4 Ca^2+ IC50
T4 construct: expressed in transfected cells; host or cells: CHO-K1-Gα16
Protocol: (§3) CHO-K1-Gα16 cells at the logarithmic growth phase were transfected with EP4 overexpressing vector by Lipofectamine 2000 and then seeded in a 96-well plate (Falcon, CA) and cultured at 20000 cells per 100 μL culture medium overnight. On the second day, every single well were added with 100 μL calcium 5 detection reagents (Molecular Devices) and incubated in incubator at 37° C., 5% CO2 for 45 minutes. The compounds were diluted in HBSS detection buffer, then added to 96-well plates. After incubated for 20 min at room temperature away from light, certain concentration of prostaglandin E2 was used to activate calcium flux of cells for detection (Flexstation 3, MD, CA).
(§4) Calculate the IC50 of the compounds of the invention in inhibiting the calcium flux of human PGE2 receptor EP4 subtype (hEP4) and mouse PGE2 receptor EP4 subtype (mEP4) (i.e. the concentration of drugs at which the intracellular Ca^2+ flux is inhibited by half after overexpressing hEP4 and mEP4 receptors in CHO-K1-Gα16 cells). The IC50 of the drugs were calculated using GraphPad Prism 5.

[8] = target: T5, mouse PGE2 receptor EP4 subtype (mEP4) (Mus musculus, UniProt P32240); assay: Calcium flux of mouse prostaglandin E2 receptor EP4 subtype; assay type: cell-based; conditions: CHO-K1-Gα16 cells overexpressing mEP4, calcium flux activated by prostaglandin E2; read-out: mEP4 Ca^2+ IC50
T5 construct: expressed in transfected cells; host or cells: CHO-K1-Gα16
Protocol: as §3, §4

[9] = Cytotoxicity evaluation (CCK8), EMT-6; conditions: mouse, EMT-6 breast cancer cells
Protocol: as §5, §6, §7, §8

[10] = Cytotoxicity evaluation (CCK8), LLC; conditions: mouse, LLC lung cancer cells
Protocol: as §5, §6, §7, §8

[11] = Cytotoxicity evaluation (CCK8), CT26; conditions: mouse, CT26 intestinal cancer cells
Protocol: as §5, §6, §7, §8

T4 sequence (P35408 whole entry): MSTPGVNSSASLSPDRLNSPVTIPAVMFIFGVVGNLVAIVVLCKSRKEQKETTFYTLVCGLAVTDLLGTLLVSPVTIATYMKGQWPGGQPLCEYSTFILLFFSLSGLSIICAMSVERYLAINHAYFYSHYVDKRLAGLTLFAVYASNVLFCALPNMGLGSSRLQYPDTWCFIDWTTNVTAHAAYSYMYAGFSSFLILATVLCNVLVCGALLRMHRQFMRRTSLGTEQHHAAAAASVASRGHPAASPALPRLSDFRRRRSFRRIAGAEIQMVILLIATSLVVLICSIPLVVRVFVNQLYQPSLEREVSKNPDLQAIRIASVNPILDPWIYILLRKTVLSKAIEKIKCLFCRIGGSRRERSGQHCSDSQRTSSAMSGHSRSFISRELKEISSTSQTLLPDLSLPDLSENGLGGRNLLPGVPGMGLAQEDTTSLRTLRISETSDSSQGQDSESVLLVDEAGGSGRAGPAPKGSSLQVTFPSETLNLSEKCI
T2 sequence (P43116 whole entry): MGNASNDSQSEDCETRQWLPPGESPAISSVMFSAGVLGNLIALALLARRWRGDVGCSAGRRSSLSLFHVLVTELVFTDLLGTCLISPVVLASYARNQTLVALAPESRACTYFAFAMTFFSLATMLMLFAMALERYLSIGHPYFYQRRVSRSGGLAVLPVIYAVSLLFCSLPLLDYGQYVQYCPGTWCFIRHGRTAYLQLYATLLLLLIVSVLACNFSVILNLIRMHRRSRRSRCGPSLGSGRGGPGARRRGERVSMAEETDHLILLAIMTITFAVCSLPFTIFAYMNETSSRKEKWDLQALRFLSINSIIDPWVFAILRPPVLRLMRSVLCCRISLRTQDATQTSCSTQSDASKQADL
T5 sequence (P32240 whole entry): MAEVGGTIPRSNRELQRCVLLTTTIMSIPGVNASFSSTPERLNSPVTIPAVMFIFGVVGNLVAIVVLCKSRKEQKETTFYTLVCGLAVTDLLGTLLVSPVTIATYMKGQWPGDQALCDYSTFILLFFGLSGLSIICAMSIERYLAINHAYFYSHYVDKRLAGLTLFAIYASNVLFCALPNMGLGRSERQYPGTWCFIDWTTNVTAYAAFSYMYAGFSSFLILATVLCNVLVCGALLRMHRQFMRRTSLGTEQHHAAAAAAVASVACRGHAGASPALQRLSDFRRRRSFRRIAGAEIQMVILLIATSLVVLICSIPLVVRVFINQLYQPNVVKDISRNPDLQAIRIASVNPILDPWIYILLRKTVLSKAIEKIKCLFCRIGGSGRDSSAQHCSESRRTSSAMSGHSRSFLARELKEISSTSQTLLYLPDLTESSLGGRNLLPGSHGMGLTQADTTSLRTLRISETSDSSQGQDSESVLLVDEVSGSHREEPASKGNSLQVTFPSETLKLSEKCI

C[C@H](NC(=O)c1c(CCc2ccc(F)cc2)sc2c1CC(C)(C)OC2)c1ccc(C(=O)O)cc1 [YJ110, (S)-4-(1-(2-(4-fluorophenethyl)-5,5-dimethyl-5,7-dihydro-4H-thieno[2,3-c]pyran-3-carboxamido)ethyl)benzoic Acid]
IC50 [1]: > 10 µM | IC50 at 72 h [2]: > 100 µM | IC50 [3]: > 10 µM | IC50 at 72 h [4]: > 100 µM | IC50 at 72 h [5]: > 100 µM | IC50 [6]: > 10 µM | IC50 [7]: < 0.1 µM | IC50 [8]: < 0.1 µM | IC50 at 72 h [9]: > 100 µM | IC50 at 72 h [10]: > 100 µM | IC50 at 72 h [11]: > 100 µM

C[C@H](NC(=O)c1c(Cc2cccc(Cl)c2)sc2c1CCOC2)c1ccc(C(=O)O)cc1 [YJ126, (S)-4-(1-(2-(3-chlorobenzyl)-4,7-dihydro-5H-thieno[2,3-c]pyran-3-carboxamido)ethyl)benzoic Acid]
IC50 [7]: < 0.1 µM

O=C(NCC1CCC(C(=O)O)CC1)c1c(Cc2ccc(F)cc2)sc2c1CCOC2 (centres unmarked) [YJ130, 4-((2-(4-fluorobenzyl)-4,7-dihydro-5H-thieno[2,3-c]pyran-3-carboxamido)methyl)cyclohexane-1-carboxylic Acid]
IC50 [7]: < 0.1 µM | IC50 [8]: 0.1 to 1 µM

COc1ccc(CCc2sc3c(c2C(=O)N[C@@H](C)c2ccc(C(=O)O)cc2)CCOC3)cc1 [YJ122, (S)-4-(1-(2-(4-methoxyphenethyl)-4,7-dihydro-5H-thieno[2,3-c]pyran-3-carboxamido)ethyl)benzoic Acid]
IC50 [7]: < 0.1 µM

Nc1ccn([C@@H]2O[C@H](CO)[C@@H](O)C2(F)F)c(=O)n1 [gemcitabine, reference compound]
IC50 at 72 h [2]: 0.0051 ± 0.0001 µM | IC50 at 72 h [5]: 0.0726 ± 0.0003 µM | IC50 at 72 h [10]: 0.0053 ± 0.0002 µM | IC50 at 72 h [11]: 0.016 ± 0.0001 µM

C[C@H](NC(=O)c1c(C#Cc2ccc(F)cc2)sc2c1CCC2)c1ccc(C(=O)O)cc1 [YJ102, (S)-4-(1-(2-((4-fluorophenyl)ethynyl)-5,6-dihydro-4H-cyclopenta[b]thiophene-3-carboxamido)ethyl)benzoic Acid]
IC50 [7]: < 0.1 µM | IC50 [8]: < 0.1 µM

C[C@H](NC(=O)c1c(CCc2cccc(F)c2)sc2c1CCOC2)c1ccc(C(=O)O)cc1 [YJ113, (S)-4-(1-(2-(3-fluorophenethyl)-4,7-dihydro-5H-thieno[2,3-c]pyran-3-carboxamido)ethyl)benzoic Acid]
IC50 [1]: > 10 µM | IC50 at 72 h [2]: > 100 µM | IC50 [3]: > 10 µM | IC50 at 72 h [4]: > 100 µM | IC50 at 72 h [5]: > 100 µM | IC50 [6]: > 10 µM | IC50 [7]: < 0.1 µM | IC50 [8]: 0.1 to 1 µM | IC50 at 72 h [9]: > 100 µM | IC50 at 72 h [10]: > 100 µM | IC50 at 72 h [11]: > 100 µM

COc1ccc(Cc2sc3c(c2C(=O)N[C@@H](C)c2ccc(C(=O)O)cc2)CCOC3)cc1 [YJ128, (S)-4-(1-(2-(4-methoxybenzyl)-4,7-dihydro-5H-thieno[2,3-c]pyran-3-carboxamido)ethyl)benzoic Acid]
IC50 [7]: < 0.1 µM

C[C@H](NC(=O)c1c(C#Cc2ccc(F)cc2)sc2c1CCCCC2)c1ccc(C(=O)O)cc1 [YJ104, (S)-4-(1-(2-((4-fluorophenyl)ethynyl)-5,6,7,8-tetrahydro-4H-cyclohepta[b]thiophene-3-carboxamido)ethyl)benzoic Acid]
IC50 [1]: > 10 µM | IC50 at 72 h [2]: > 100 µM | IC50 [3]: > 10 µM | IC50 at 72 h [4]: > 100 µM | IC50 at 72 h [5]: > 100 µM | IC50 [6]: > 10 µM | IC50 [7]: < 0.1 µM | IC50 [8]: 0.1 to 1 µM | IC50 at 72 h [9]: > 100 µM | IC50 at 72 h [10]: > 100 µM | IC50 at 72 h [11]: > 100 µM

C[C@H](NC(=O)c1c(NCc2ccc(C(F)(F)F)cc2)sc2c1CCOC2)c1ccc(C(=O)O)cc1 [YJ121, (S)-4-(1-(2-((4-(trifluoromethyl)benzyl)amino)-5,7-dihydro-4H-thieno[2,3-c]pyran-3-carboxamido)ethyl)benzoic Acid]
IC50 [1]: 1 to 10 µM | IC50 at 72 h [2]: 10 to 100 µM | IC50 [3]: 1 to 10 µM | IC50 at 72 h [4]: 10 to 100 µM | IC50 at 72 h [5]: 10 to 100 µM | IC50 [6]: 1 to 10 µM | IC50 [7]: < 0.1 µM | IC50 [8]: < 0.1 µM | IC50 at 72 h [9]: 10 to 100 µM | IC50 at 72 h [10]: 10 to 100 µM | IC50 at 72 h [11]: 10 to 100 µM

C[C@H](NC(=O)c1c(Cc2cccc(F)c2)sc2c1CCOC2)c1ccc(C(=O)O)cc1 [YJ123, (S)-4-(1-(2-(3-fluorobenzyl)-4,7-dihydro-5H-thieno[2,3-c]pyran-3-carboxamido)ethyl)benzoic Acid]
IC50 [7]: < 0.1 µM

C[C@H](NC(=O)c1c(C#Cc2ccc(F)cc2)sc2c1CC(C)(C)OC2)c1ccc(C(=O)O)cc1 [YJ105, (S)-4-(1-(2-((4-fluorophenyl)ethynyl)-5,5-dimethyl-5,7-dihydro-4H-thieno[2,3-c]pyran-3-carboxamido)ethyl)benzoic Acid]
IC50 [7]: 0.1 to 1 µM

C[C@H](NC(=O)c1c(CCc2ccc(C(F)(F)F)cc2)sc2c1CCOC2)c1ccc(C(=O)O)cc1 [YJ111, (S)-4-(1-(2-(4-(trifluoromethyl)phenethyl)-5,7-dihydro-4H-thieno[2,3-c]pyran-3-carboxamido)ethyl)benzoic Acid]
IC50 [7]: < 0.1 µM | IC50 [8]: < 0.1 µM

C[C@H](NC(=O)c1c(C#Cc2ccc(F)cc2)sc2c1CCOC2)c1ccc(C(=O)O)cc1 [YJ101, (S)-4-(1-(2-((4-fluorophenyl)ethynyl)-5,7-dihydro-4H-thieno[2,3-c]pyran-3-carboxamido)ethyl)benzoic Acid]
IC50 [1]: > 10 µM | IC50 at 72 h [2]: > 100 µM | IC50 [3]: > 10 µM | IC50 at 72 h [4]: > 100 µM | IC50 at 72 h [5]: > 100 µM | IC50 [6]: > 10 µM | IC50 [8]: 0.1 to 1 µM | IC50 at 72 h [9]: > 100 µM | IC50 at 72 h [10]: > 100 µM | IC50 at 72 h [11]: > 100 µM

C[C@H](NC(=O)c1c(CCc2ccc(F)cc2)sc2c1CCC2)c1ccc(C(=O)O)cc1 [YJ109, (S)-4-(1-(2-(4-fluorophenethyl)-5,6-dihydro-4H-cyclopenta[b]thiophene-3-carboxamido)ethyl)benzoic Acid]
IC50 at 72 h [2]: > 100 µM | IC50 at 72 h [4]: > 100 µM | IC50 at 72 h [5]: > 100 µM | IC50 [8]: < 0.1 µM | IC50 at 72 h [9]: > 100 µM | IC50 at 72 h [10]: > 100 µM | IC50 at 72 h [11]: > 100 µM

C[C@H](NC(=O)c1c(Cc2ccc(F)c(F)c2)sc2c1CCOC2)c1ccc(C(=O)O)cc1 [YJ127, (S)-4-(1-(2-(3,4-difluorobenzyl)-4,7-dihydro-5H-thieno[2,3-c]pyran-3-carboxamido)ethyl)benzoic Acid]
IC50 [7]: < 0.1 µM
